Consider 2 compounds from paper PMC4306947, “Synthesis and Antiproliferative Activity of Thiazolyl-bis-pyrrolo[2,3-b]pyridines and Indolyl-thiazolyl-pyrrolo[2,3-c]pyridines, Nortopsentin Analogues” (Marine Drugs, 2015).

In general, GI50 refers to the concentration that inhibits growth by half.

One test relates to NCI-H522. As to the kind of experiment: NCI-60 in vitro tumor cell screen, NCI-H522. It counts as cell-based. The conditions noted are these: Homo sapiens; NCI-H522, Non-Small Cell Lung Cancer. The method, then: (§1) All the synthesized thiazoles 1a–l, 2a–j, 3a–f and 4a–f were evaluated by the National Cancer Institute (Bethesda MD) for cytotoxicity against the NCI-60 cell line panel using standard protocols. Initially, all derivatives were tested at a single dose (10^−5 M) on the full panel of approximately 60 human tumor cell lines derived from 9 human cancer cell types, that have been grouped in disease sub-panels including leukemia, non-small-cell lung, colon, central nervous system (CNS), melanoma, ovarian, renal, prostate and breast cancers (data not shown). Compounds 1k and 4c were further selected for full evaluation at five concentration levels (10^−4–10^−8 M).
(§2) The antitumor activity of compounds 1k and 4c was given by three parameters for each cell line: GI50 (GI50 is the molar concentration of the compound that inhibits 50% net cell growth), TGI (TGI is the molar concentration of the compound leading to total inhibition of net cell growth), and LC50 (LC50 is the molar concentration of the compound that induces 50% net cell death). The average values of mean graph midpoint (MG_MID) were calculated for each of these parameters.

The next test concerns NCI-H226. Put plainly: NCI-60 in vitro tumor cell screen, NCI-H226. It counts as cell-based. The conditions noted are these: Homo sapiens; NCI-H226, Non-Small Cell Lung Cancer. The method, then:
as §1, §2

The next test has as its system M14. As to the kind of experiment: NCI-60 in vitro tumor cell screen, M14. In kind it is cell-based. To be noted: Homo sapiens; M14, Melanoma. The method, then:
as §1, §2

In the next test the test system is HT29. Put plainly: NCI-60 in vitro tumor cell screen, HT29. In kind it is cell-based. The conditions noted are these: Homo sapiens, HT-29; HT29, Colon Cancer. The protocol:
as §1, §2

A further test has as its system 786-0. Put plainly: NCI-60 in vitro tumor cell screen, 786-0. The conditions noted are these: Homo sapiens; 786-0, Renal Cancer. It counts as cell-based. The method, then: as §1, §2
The subject of another test is HCC-2998. Put plainly: NCI-60 in vitro tumor cell screen, HCC-2998. In kind it is cell-based. The conditions noted are these: Homo sapiens; HCC-2998, Colon Cancer. The method, then: as §1, §2
A further test has as its system SK-OV-3. As to the kind of experiment: NCI-60 in vitro tumor cell screen, SK-OV-3. It counts as cell-based. To be noted: Homo sapiens; SK-OV-3, Ovarian Cancer. The method, then:
as §1, §2

In the next test the test system is OVCAR-5. As to the kind of experiment: NCI-60 in vitro tumor cell screen, OVCAR-5. It counts as cell-based. To be noted: Homo sapiens; OVCAR-5, Ovarian Cancer. The method, then:
as §1, §2

The test system of a further test is HCT-116 cells. As to the kind of experiment: Cell cycle analysis by flow cytometry (propidium iodide). It counts as cell-based, human. To be noted: 24 h, concentrations above and below GI50. The method, then:
Cell cycle stage was analyzed by flow cytometry. HCT-116 cells (5.0 × 10^4 cells/cm^2) were seeded in triplicate in 24-wells culture plates. After an overnight incubation, the cells were washed with fresh medium and incubated with compounds 1k and 4c in RPMI for 24 h. Then cells were harvested by trypsinization. Aliquots of 1 × 10^6 cells were washed with PBS and incubated in the dark in a PBS solution containing 20 μg/mL propidium iodide (PI) and 200 μg/mL RNase, for 30 min, at room temperature. Then samples of at least 1.0 × 10^4 cells were subjected to fluorescence-activated cell sorting (FACS) analysis by Epics XL™ flow cytometer using Expo32 software (Beckman Coulter, Fullerton, CA, USA).

The subject of the next test is K-562. As to the kind of experiment: NCI-60 in vitro tumor cell screen, K-562. In kind it is cell-based. To be noted: Homo sapiens, K562; K-562, Leukemia. The protocol:
as §1, §2

A further test has as its system SF-268. Put plainly: NCI-60 in vitro tumor cell screen, SF-268. In kind it is cell-based. The conditions noted are these: Homo sapiens; SF-268, CNS Cancer. The method, then: as §1, §2
For a further test, the system named is NCI-H23. Put plainly: NCI-60 in vitro tumor cell screen, NCI-H23. It counts as cell-based. The conditions noted are these: Homo sapiens; NCI-H23, Non-Small Cell Lung Cancer. The protocol:
as §1, §2

Another test has as its system ACHN. As to the kind of experiment: NCI-60 in vitro tumor cell screen, ACHN. In kind it is cell-based. To be noted: Homo sapiens, Renal Cancer. The method, then:
as §1, §2

The next test concerns DU-145. Put plainly: NCI-60 in vitro tumor cell screen, DU-145. In kind it is cell-based. To be noted: Homo sapiens; DU-145, Prostate Cancer. The method, then:
as §1, §2

The next test has as its system HOP-62. As to the kind of experiment: NCI-60 in vitro tumor cell screen, HOP-62. It counts as cell-based. The conditions noted are these: Homo sapiens; HOP-62, Non-Small Cell Lung Cancer. The method, then: as §1, §2
The subject of another test is MDA-MB-468. As to the kind of experiment: NCI-60 in vitro tumor cell screen, MDA-MB-468. It counts as cell-based. The conditions noted are these: Homo sapiens; MDA-MB-468, Breast Cancer. The method, then: as §1, §2
A further test relates to NCI-H460. As to the kind of experiment: NCI-60 in vitro tumor cell screen, NCI-H460. To be noted: Homo sapiens; NCI-H460, Non-Small Cell Lung Cancer. In kind it is cell-based. The method, then: as §1, §2
The test system of test [1] is intestinal normal-like differentiated Caco-2 cells. As to the kind of experiment: MTT viability assay, differentiated Caco-2 cells, 24 h. To be noted: range 5 to 100 μM. In kind it is cell-based, human. The protocol: (§3) Nortopsentin analogues, prepared as described above, were dissolved in dimethyl sulfoxide (DMSO) and then diluted in culture medium to have a DMSO concentration not exceeding 0.1%. HCT-116 and Caco-2 cell lines were purchased from American Type Culture Collection, Rockville, MD, USA and DMEM supplemented with […], […] bovine serum (FBS), penicillin (100 U/mL), streptomycin (100 μg/mL) and gentamicin (5 μg/mL). Cells were maintained in log phase by seeding twice a week at a density of 3 × 10^8 cells/L in humidified 5% CO2 atmosphere, at 37 °C. In all experiments, HCT-116 cells were made quiescent through overnight incubation before treatment with tested compounds or vehicle alone (control cells), while Caco-2 cells were treated 15 days after confluence, at which time the cells are differentiated in normal intestinal-like cells. […]
(§4) Cytotoxic activity of the nortopsentin derivatives 1k and 4c was determined by the colorimetric assay based on the reduction of […] (MTT) to purple formazan by mitochondrial dehydrogenases. […] Cells were incubated 2 h at 37 °C, then medium was discarded by centrifugation, formazan blue formed in the cells dissolved in DMSO, and absorbance measured at 570 nm in a microplate reader (Bio-RAD, Hercules, CA, USA). […] GI50 was calculated by the curve of percent viability vs. concentration. […]
(In general: Formazan colour is commonly taken as a measure of viable cells.)

The subject of another test is RXF393. Put plainly: NCI-60 in vitro tumor cell screen, RXF393. In kind it is cell-based. To be noted: Homo sapiens, RXF 393; RXF393, Renal Cancer. The protocol:
as §1, §2

For the next test, the system named is EKVK. Put plainly: NCI-60 in vitro tumor cell screen, EKVK. In kind it is cell-based. To be noted: Homo sapiens, Non-Small Cell Lung Cancer. The method, then:
as §1, §2

Another test concerns CCRF-CEM. As to the kind of experiment: NCI-60 in vitro tumor cell screen, CCRF-CEM. In kind it is cell-based. To be noted: Homo sapiens, Leukemia. The method, then: as §1, §2
Test [2] concerns HCT-116 colorectal carcinoma cells. As to the kind of experiment: MTT viability assay, HCT-116 cells, 24 h. To be noted: Homo sapiens, 5–100 μM, read-out: GI50 after 24 h treatment. In kind it is cell-based. The protocol:
as §3, §4

Molecules are shown by their SMILES.

As for `Cn1cc(-c2csc(-c3c[nH]c4ncccc34)n2)c2cc(Br)cnc21` [Compound 1k, 5-Bromo-1-methyl-3-[2-(1H-pyrrolo[2,3-b]pyridin-3-yl)-1,3-thiazol-4-yl]-1H-pyrrolo[2,3-b]pyridine], the GI50 is 4860 nM with NCI-H522; 1970 nM with NCI-H226; 4060 nM in the test with M14; 6750 nM with HT29; 9650 nM in the test with 786-0; greater than 100000 nM in the test with HCC-2998. For the same compound, the GI50 with SK-OV-3 was 3250 nM; in the test on OVCAR-5 it was greater than 100000 nM; with K-562, 8760 nM; with SF-268 it was 6010 nM; with NCI-H23, 2800 nM; with ACHN it was 2350 nM. Moreover, the GI50 in the test on DU-145 is 3510 nM; in the test on HOP-62 it was 2390 nM; in the test on MDA-MB-468, 810 nM; in the test on NCI-H460, 2980 nM; in the test on RXF393 it was 2050 nM; in the test with EKVK, 1270 nM. Also, the GI50 in the test on CCRF-CEM stood at 6810 nM; in test [2] it was 33600 ± 2310 nM. Besides, in the test with HCT-116 cells, the “alteration of cell cycle distribution” value is “dose-dependent accumulation of cells in G2/M phase”. Moreover, the “effect on cell viability” value in test [1] is “did not affect the differentiated Caco-2 cell viability”.

Take `Clc1nccc2c(-c3csc(-c4c[nH]c5ccc(Br)cc45)n3)c[nH]c12` [Compound 4c, 3-[2-(5-Bromo-1H-indol-3-yl)-1,3-thiazol-4-yl]-7-chloro-1H-pyrrolo[2,3-c]pyridine]: the GI50 in the test with NCI-H522 was 2280 nM; in the test with NCI-H226, 2400 nM; in the test with M14, 2220 nM; in the test on HT29, 2660 nM; in the test on 786-0, 1370 nM; in the test on HCC-2998 it was 2220 nM. Moreover, the GI50 with SK-OV-3 came out at 2780 nM; in the test with OVCAR-5, 3140 nM; with K-562, 2730 nM; in the test on SF-268, 4060 nM; in the test with NCI-H23 it was 2420 nM; in the test with ACHN it was 2020 nM. Further, the GI50 with DU-145 came out at 1760 nM; with HOP-62 it was 2110 nM; in the test with MDA-MB-468 it was 1180 nM; with NCI-H460, 2160 nM; in the test with RXF393 it was 1480 nM; in the test on EKVK it was 3110 nM. In addition, the GI50 in the test on CCRF-CEM was 3160 nM; in test [2], 13200 ± 950 nM. In addition, in the test on HCT-116 cells, the “alteration of cell cycle distribution” value is “dose-dependent accumulation of cells in G1 phase”. In addition, the “effect on cell viability” value in test [1] was “did not affect the differentiated Caco-2 cell viability”.
